Test system: 598228-144-R-J1-PDC complex spheroid viability
Assay: Anticancer human tumor 598228-144-R-J1-PDC patient-derived serous endometrial adenocarcinoma cell line growth inhibition [GQUAD]
Details: for IC50: curve of first compound; for viability, T/C: stronger effect = lower value
How it was run: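 Viability of tumor cells grown as complex spheroids with endothelial and stromal cells, exposed to drug combinations. Top concentration at or near clinical Cmax (else 10 microM), diluted in half-log increments.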

[1] = second compound 0.0316 µM, first compound 0.0316 µM
[2] = second compound 0.0316 µM, first compound 0.316 µM
[3] = second compound 0.1 µM, first compound 0.0316 µM
[4] = second compound 0.1 µM, first compound 0.316 µM
[5] = second compound 0.316 µM, first compound 0.0316 µM
[6] = second compound 0.316 µM, first compound 0.316 µM
[7] = second compound 1 µM, first compound 0.0316 µM
[8] = second compound 1 µM, first compound 0.316 µM
[9] = second compound 3.16 µM, first compound 0.0316 µM
[10] = second compound 3.16 µM, first compound 0.316 µM
[11] = second compound 10 µM, first compound 0.0316 µM
[12] = second compound 10 µM, first compound 0.316 µM
[13] = second compound 0.0316 µM, first compound 0.1 µM
[14] = second compound 0.0316 µM, first compound 1 µM
[15] = second compound 0.0316 µM, first compound 3.16 µM
[16] = second compound 0.0316 µM, first compound 10 µM
[17] = second compound 0.1 µM, first compound 0.1 µM
[18] = second compound 0.1 µM, first compound 1 µM
[19] = second compound 0.1 µM, first compound 3.16 µM
[20] = second compound 0.1 µM, first compound 10 µM
[21] = second compound 0.316 µM, first compound 0.1 µM
[22] = second compound 0.316 µM, first compound 1 µM
[23] = second compound 0.316 µM, first compound 3.16 µM
[24] = second compound 0.316 µM, first compound 10 µM
[25] = second compound 1 µM, first compound 0.1 µM
[26] = second compound 1 µM, first compound 1 µM
[27] = second compound 1 µM, first compound 3.16 µM
[28] = second compound 1 µM, first compound 10 µM
[29] = second compound 3.16 µM, first compound 0.1 µM
[30] = second compound 3.16 µM, first compound 1 µM
[31] = second compound 3.16 µM, first compound 3.16 µM
[32] = second compound 3.16 µM, first compound 10 µM
[33] = second compound 10 µM, first compound 0.1 µM
[34] = second compound 10 µM, first compound 1 µM
[35] = second compound 10 µM, first compound 3.16 µM
[36] = second compound 10 µM, first compound 10 µM
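Also: spheroids exposed to the agents for one week before reading.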
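For viability, T/C in this document: percent of vehicle DMSO control viability so 100% = untreated growth.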

With `Cc1[nH]c2ccccc2c1CCNCc1ccc(/C=C/C(=O)NO)cc1` + Cc1cnc(CNC(=O)c2c(=O)c3ccc(N4CCCN(C)CC4)nc3n3c2sc2ccccc23)cn1 the IC50 (second compound 0.0316 µM) was 54.4 nM, the IC50 (second compound 0.1 µM) was 20.2 nM and the IC50 (second compound 0.316 µM) was 16.1 nM. The IC50 (second compound 1 µM) was 11.6 nM, the IC50 (second compound 3.16 µM) was < 0.999 nM and the IC50 (second compound 10 µM) was < 0.999 nM. For the same molecule, the viability, T/C (second compound 0.0316 µM, first compound 0.000999 µM) was 104%, the viability, T/C (second compound 0.0316 µM, first compound 0.00316 µM) was 116% and the viability, T/C (second compound 0.0316 µM, first compound 0.00999 µM) was 85.1%. For the same molecule, the viability, T/C [1] was 67.3%, the viability, T/C (second compound 0.0316 µM, first compound 0.0999 µM) was 32.4% and the viability, T/C [2] was 0.76%. It also gave a viability, T/C (second compound 0.1 µM, first compound 0.000999 µM) of 80.7%, a viability, T/C (second compound 0.1 µM, first compound 0.00316 µM) of 71.8% and a viability, T/C (second compound 0.1 µM, first compound 0.00999 µM) of 61.1%. The viability, T/C [3] was 41.6%, the viability, T/C (second compound 0.1 µM, first compound 0.0999 µM) was 26.2% and the viability, T/C [4] was 0.82%. It also gave a viability, T/C (second compound 0.316 µM, first compound 0.000999 µM) of 69%, a viability, T/C (second compound 0.316 µM, first compound 0.00316 µM) of 66.9% and a viability, T/C (second compound 0.316 µM, first compound 0.00999 µM) of 53.3%. For the same molecule, the viability, T/C [5] was 43.7%, the viability, T/C (second compound 0.316 µM, first compound 0.0999 µM) was 18.4% and the viability, T/C [6] was 0.28%. It also gave a viability, T/C (second compound 1 µM, first compound 0.000999 µM) of 62.7%, a viability, T/C (second compound 1 µM, first compound 0.00316 µM) of 67.1% and a viability, T/C (second compound 1 µM, first compound 0.00999 µM) of 49.7%. For the same molecule, the viability, T/C [7] was 29.8%, the viability, T/C (second compound 1 µM, first compound 0.0999 µM) was 0.26% and the viability, T/C [8] was 0.37%. It also gave a viability, T/C (second compound 3.16 µM, first compound 0.000999 µM) of 49.4%, a viability, T/C (second compound 3.16 µM, first compound 0.00316 µM) of 49.4% and a viability, T/C (second compound 3.16 µM, first compound 0.00999 µM) of 39.9%. It also gave a viability, T/C [9] of 0.32%, a viability, T/C (second compound 3.16 µM, first compound 0.0999 µM) of 0.34% and a viability, T/C [10] of 0.25%. For the same molecule, the viability, T/C (second compound 10 µM, first compound 0.000999 µM) was 20.6%, the viability, T/C (second compound 10 µM, first compound 0.00316 µM) was 16.2% and the viability, T/C (second compound 10 µM, first compound 0.00999 µM) was 0.43%. For the same molecule, the viability, T/C [11] was 0.33%, the viability, T/C (second compound 10 µM, first compound 0.0999 µM) was 0.34% and the viability, T/C [12] was 0.31%.
`Nc1ccn(C2OC(CO)C(O)C2(F)F)c(=O)n1` (stereo not drawn) + Cc1cnc(CNC(=O)c2c(=O)c3ccc(N4CCCN(C)CC4)nc3n3c2sc2ccccc23)cn1 showed an IC50 (second compound 0.0316 µM) of 71.2 nM, an IC50 (second compound 0.1 µM) of 52.6 nM and an IC50 (second compound 0.316 µM) of 68.4 nM. The IC50 (second compound 1 µM) was < 31.6 nM, the IC50 (second compound 3.16 µM) was < 31.6 nM and the IC50 (second compound 10 µM) was < 31.6 nM. The viability, T/C [1] was 65.9%, the viability, T/C [13] was 42.8% and the viability, T/C [2] was 41.7%. The viability, T/C [14] was 42.5%, the viability, T/C [15] was 43.6% and the viability, T/C [16] was 44.6%. It also gave a viability, T/C [3] of 58.7%, a viability, T/C [17] of 38.4% and a viability, T/C [4] of 45.7%. The viability, T/C [18] was 46.6%, the viability, T/C [19] was 40% and the viability, T/C [20] was 39%. It also gave a viability, T/C [5] of 63.5%, a viability, T/C [21] of 43.8% and a viability, T/C [6] of 38.2%. For the same molecule, the viability, T/C [22] was 44.9%, the viability, T/C [23] was 44.8% and the viability, T/C [24] was 39.1%. The viability, T/C [7] was 58.3%, the viability, T/C [25] was 41.6% and the viability, T/C [8] was 47.5%. It also gave a viability, T/C [26] of 39.7%, a viability, T/C [27] of 54.7% and a viability, T/C [28] of 46.8%. The viability, T/C [9] was 60.2%, the viability, T/C [29] was 43.2% and the viability, T/C [10] was 36.4%. It also gave a viability, T/C [30] of 26.4%, a viability, T/C [31] of 50.5% and a viability, T/C [32] of 37%. The viability, T/C [11] was 48.5%, the viability, T/C [33] was 27.7% and the viability, T/C [12] was 23.3%. It also gave a viability, T/C [34] of 30.2%, a viability, T/C [35] of 38.8% and a viability, T/C [36] of 18.6%.
`O=C(NO)c1cnc(N2CCN(S(=O)(=O)c3ccc4ccccc4c3)CC2)nc1` + Cc1cnc(CNC(=O)c2c(=O)c3ccc(N4CCCN(C)CC4)nc3n3c2sc2ccccc23)cn1 gave an IC50 (second compound 0.0316 µM) of 103 nM, an IC50 (second compound 0.1 µM) of 114 nM and an IC50 (second compound 0.316 µM) of 66.6 nM. The IC50 (second compound 1 µM) was 34.5 nM, the IC50 (second compound 3.16 µM) was < 31.6 nM and the IC50 (second compound 10 µM) was < 31.6 nM. It also gave a viability, T/C [1] of 92.8%, a viability, T/C [13] of 49.6% and a viability, T/C [2] of 22.8%. The viability, T/C [14] was 0.83%, the viability, T/C [15] was 0.39% and the viability, T/C [16] was 0.19%. For the same molecule, the viability, T/C [3] was 80.1%, the viability, T/C [17] was 52% and the viability, T/C [4] was 25.3%. It also gave a viability, T/C [18] of 1.24%, a viability, T/C [19] of 0.16% and a viability, T/C [20] of 0.23%. The viability, T/C [5] was 69.4%, the viability, T/C [21] was 38.7% and the viability, T/C [6] was 16.6%. The viability, T/C [22] was 0.27%, the viability, T/C [23] was 0.14% and the viability, T/C [24] was 0.14%. It also gave a viability, T/C [7] of 51.6%, a viability, T/C [25] of 30.6% and a viability, T/C [8] of 0.25%. The viability, T/C [26] was 0.31%, the viability, T/C [27] was 0.15% and the viability, T/C [28] was 0.19%. It also gave a viability, T/C [9] of 38.1%, a viability, T/C [29] of 0.34% and a viability, T/C [10] of 0.31%. It also gave a viability, T/C [30] of 0.23%, a viability, T/C [31] of 0.19% and a viability, T/C [32] of 0.21%. It also gave a viability, T/C [11] of 0.42%, a viability, T/C [33] of 0.28% and a viability, T/C [12] of 0.56%. The viability, T/C [34] was 0.4%, the viability, T/C [35] was 0.29% and the viability, T/C [36] was 0.25%.
In the case of `O=c1[nH]cc(F)c(=O)[nH]1` + Cc1cnc(CNC(=O)c2c(=O)c3ccc(N4CCCN(C)CC4)nc3n3c2sc2ccccc23)cn1, the IC50 (second compound 0.0316 µM) is reported as > 10000 nM, the IC50 (second compound 0.1 µM) is reported as > 10000 nM and the IC50 (second compound 0.316 µM) is reported as > 10000 nM. The IC50 (second compound 1 µM) was > 10000 nM, the IC50 (second compound 3.16 µM) was > 10000 nM and the IC50 (second compound 10 µM) was < 31.6 nM. It also gave a viability, T/C [1] of 101%, a viability, T/C [13] of 98.9% and a viability, T/C [2] of 85.3%. For the same molecule, the viability, T/C [14] was 85.7%, the viability, T/C [15] was 89% and the viability, T/C [16] was 76%. For the same molecule, the viability, T/C [3] was 69.2%, the viability, T/C [17] was 80.3% and the viability, T/C [4] was 69.9%. The viability, T/C [18] was 65.1%, the viability, T/C [19] was 97.9% and the viability, T/C [20] was 64.1%. The viability, T/C [5] was 69.7%, the viability, T/C [21] was 77.8% and the viability, T/C [6] was 72.4%. It also gave a viability, T/C [22] of 66.3%, a viability, T/C [23] of 65.1% and a viability, T/C [24] of 55.5%. For the same molecule, the viability, T/C [7] was 61.2%, the viability, T/C [25] was 54.3% and the viability, T/C [8] was 63.5%. The viability, T/C [26] was 68.4%, the viability, T/C [27] was 73.8% and the viability, T/C [28] was 60.3%. For the same molecule, the viability, T/C [9] was 56.1%, the viability, T/C [29] was 59.2% and the viability, T/C [10] was 56%. For the same molecule, the viability, T/C [30] was 46.1%, the viability, T/C [31] was 67.9% and the viability, T/C [32] was 52.2%. For the same molecule, the viability, T/C [11] was 44.5%, the viability, T/C [33] was 49.6% and the viability, T/C [12] was 48.3%. It also gave a viability, T/C [34] of 53.1%, a viability, T/C [35] of 59.8% and a viability, T/C [36] of 51.9%.
